Laboratory results as given in patent publication US8435978B2, “Substituted sulfonamide compounds” (Gruenenthal GmbH, priority 2006, dated 2013).
Where a name gives a salt, the structure may show the parent alone. Read-outs that look alike come from different tables or passages of the source.

Experiments:
human B1R receptor = target: T1, human B1R receptor (Homo sapiens, UniProt P46663); assay: Functional study on the bradykinin receptor 1 (B1R), FLIPR Ca2+ assay, hB1R cells; type: cell-based; conditions: agonist Lys-Des-Arg9-bradykinin 0.5 nM, % inhibition compared with the maximum achievable inhibition, read-out: B1R Antagonism, human [10 μM] % Inhibition
T1 construct: host or cells: CHO K1 cells (Chinese hamster ovary), stably transfected
T1 sequence (P46663 1-353): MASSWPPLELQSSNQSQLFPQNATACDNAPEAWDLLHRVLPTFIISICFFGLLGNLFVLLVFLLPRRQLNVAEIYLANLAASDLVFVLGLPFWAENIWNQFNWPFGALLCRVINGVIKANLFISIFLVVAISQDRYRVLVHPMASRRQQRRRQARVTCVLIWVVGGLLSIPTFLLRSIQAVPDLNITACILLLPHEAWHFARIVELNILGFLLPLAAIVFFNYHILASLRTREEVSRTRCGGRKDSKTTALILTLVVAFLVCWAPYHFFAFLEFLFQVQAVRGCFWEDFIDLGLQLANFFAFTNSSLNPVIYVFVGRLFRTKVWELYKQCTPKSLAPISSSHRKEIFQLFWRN
In short: (§1)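 FLIPR Ca2+ read-out (Fluo-4, peak fluorescence) in stably transfected CHO K1 cells. Compounds at 10 μM, then 10 min later agonist challenge: human B1R with Lys-Des-Arg9-bradykinin 0.5 nM, rat B1R with Des-Arg9-bradykinin 100 nM; reported as % activation or % of maximal inhibition.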

B1R receptor of the rat = target: T2, B1R receptor of the rat (Rattus norvegicus, UniProt P97583); assay: Functional study on the bradykinin receptor 1 (B1R), FLIPR Ca2+ assay, rB1R cells; type: cell-based; conditions: agonist Des-Arg9-bradykinin 100 nM, % inhibition compared with the maximum achievable inhibition, read-out: B1R Antagonism, rat [10 μM] % Inhibition
T2 construct: host or cells: CHO K1 cells (Chinese hamster ovary), stably transfected
T2 sequence (P97583 1-337): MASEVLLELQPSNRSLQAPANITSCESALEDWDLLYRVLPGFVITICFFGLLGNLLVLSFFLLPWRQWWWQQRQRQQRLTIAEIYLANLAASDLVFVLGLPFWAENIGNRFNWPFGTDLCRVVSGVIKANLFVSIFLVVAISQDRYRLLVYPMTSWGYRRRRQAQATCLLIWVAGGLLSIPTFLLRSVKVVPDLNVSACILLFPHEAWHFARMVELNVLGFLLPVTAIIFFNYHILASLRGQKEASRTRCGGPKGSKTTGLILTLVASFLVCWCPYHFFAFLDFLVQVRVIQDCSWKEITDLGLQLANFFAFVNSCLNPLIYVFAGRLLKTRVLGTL
In short: as §1

[1] = system: formalin-induced pain behavior; assay: Formalin test in the mouse (phase 2, chronic pain component); type: in vivo; conditions: iv, 5 min. before formalin injection, observation 21 to 24 minutes after formalin
Description: The formalin test (Dubuisson, D. and Dennis, S. G., 1977, Pain, 4, 161-174) represents a model for both acute and chronic pain. By means of a single formalin injection into the dorsal side of a rear paw, a biphasic nociceptive reaction is induced in freely mobile test animals; the reaction is detected by observing three behaviour patterns which are clearly distinguishable from one another. The reaction is two-phase: phase 1=immediate reaction (duration up to 10 min., shaking of the paw, licking), phase 2=late reaction (after a rest phase; likewise shaking of the paw, licking; duration up to 60 min.). The 1st phase reflects a direct stimulation of the peripheral nocisensors with high spinal nociceptive input (acute pain phase); the 2nd phase reflects a spinal and peripheral hypersensitization (chronic pain phase). In the studies described here, the chronic pain component (phase 2) has been evaluated. Formalin in a volume of 20 μl and a concentration of 1% is administered subcutaneously into the dorsal side of the right rear paw of each animal. The specific changes in behavior, such as lifting, shaking or licking of the paw (score 3, Dubuisson & Dennis, 1977), are observed and recorded in the observation period of 21 to 24 minutes following the formalin injection. The behaviour of the animals after administration of the substance (n=10 per dose of substance) was compared with a control group which received vehicle (n=10). Based on the quantification of the pain behavior, the action of the substance in the formalin test was determined as the change in percent compared with the control. The ED50 calculations (ED50=mean effective dose) were carried out by regression analysis according to the method of Litchfield and Wilcoxon (Litchfield, J. T., Wilcoxon, J. J., 1949, J. Pharmacol. Exp. Ther. 96, 99-113). The time of administration before the formalin injection was chosen in dependence on the mode of administration of the compounds according to the invention (intravenous: 5 min.).

Compound: COc1cc(C)c(S(=O)(=O)N2CCCCC2COCC(=O)N2CCN(C3CCN(C)CC3)CC2)c(C)c1.Cl.Cl (stereo not drawn) [Example 97, 2-((1-(4-methoxy-2,6-dimethylphenylsulfonyl)piperidin-2-yl)methoxy)-1-(4-(1-methylpiperidin-4-yl)piperazin-1-yl)ethanone dihydrochloride]
- inhibition at 10 µM (human B1R receptor; CHO-K1, test substance 10 μM): 98%
- inhibition at 10 µM (B1R receptor of the rat; CHO-K1, test substance 10 μM): 98.2%
- ED50 [1]: 13.3 mg/kg

Compound: COc1cc(C)c(S(=O)(=O)N2CCCCC2COCC(=O)N(C)Cc2ccc(C3=NCCN3)cc2)c(C)c1.Cl (stereo not drawn) [Example 193, N-(4-(4,5-dihydro-1H-imidazol-2-yl)benzyl)-2-((1-(4-methoxy-2,6-dimethylphenylsulfonyl)piperidin-2-yl)methoxy)-N-methylacetamide hydrochloride]
- inhibition at 10 µM (human B1R receptor; CHO-K1, test substance 10 μM): 104%
- inhibition at 10 µM (B1R receptor of the rat; CHO-K1, test substance 10 μM): 98.3%
- ED50 [1]: 2.59 mg/kg

Compound: COc1cc(C)c(S(=O)(=O)N2CCCCC2COCC(=O)N2CCC(N3CCN4CCCCC4C3)CC2)c(C)c1 (stereo not drawn) [Example 98, 1-(4-(dihydro-1H-pyrido[1,2-a]pyrazin-2(6H,7H,8H,9H,9aH)-yl)piperidin-1-yl)-2-((1-(4-methoxy-2,6-dimethylphenylsulfonyl)piperidin-2-yl)methoxy)ethanone]
- inhibition at 10 µM (human B1R receptor; CHO-K1, test substance 10 μM): 104%
- inhibition at 10 µM (B1R receptor of the rat; CHO-K1, test substance 10 μM): 101%
- ED50 [1]: 13.6 mg/kg

Compound: COCCN1CCN(C(=O)COCC2CCCCN2S(=O)(=O)c2ccc(Cl)c(Cl)c2)CC1 (stereo not drawn) [Example 46, 2-[1-(3,4-dichloro-phenylsulfonyl)-piperidin-2-ylmethoxy]-1-[4-(2-methoxy-ethyl)-piperazin-1-yl]-ethanone]
- inhibition at 10 µM (human B1R receptor; CHO-K1, test substance 10 μM): 68.2%
- inhibition at 10 µM (B1R receptor of the rat; CHO-K1, test substance 10 μM): 0%

Compound: COc1cc(C)c(S(=O)(=O)N2CCCCC2COCC(=O)N2CCc3cnccc3C2)c(C)c1 (stereo not drawn) [Example 96, 1-(3,4-dihydro-2,6-naphthyridin-2(1H)-yl)-2-((1-(4-methoxy-2,6-dimethylphenyl-sulfonyl)piperidin-2-yl)methoxy)ethanone hydrochloride]
- inhibition at 10 µM (human B1R receptor; test substance 10 μM, hB1R CHO K1 cells): 105%
- inhibition at 10 µM (B1R receptor of the rat; test substance 10 μM, rB1R CHO K1 cells): 91.3%

Compound: Cc1ccc(CN2CCN(C(=O)COCC3CCCCN3S(=O)(=O)c3c(Cl)cccc3Cl)CC2)cc1 (stereo not drawn) [Example 408, 2-((1-(2,6-dichlorophenylsulfonyl)piperidin-2-yl)methoxy)-1-(4-(4-methylbenzyl)piperazin-1-yl)ethanone]
- inhibition at 10 µM (human B1R receptor; CHO-K1, test substance 10 μM): 102%
- inhibition at 10 µM (B1R receptor of the rat; CHO-K1, test substance 10 μM): 99.8%

Compound: Cc1cc(C)c(S(=O)(=O)N2Cc3ccccc3CC2COCC(=O)N2CCCN(Cc3ccccc3)CC2)c(C)c1 (stereo not drawn) [Example 67, 1-(4-benzyl-[1,4]diazepan-1-yl)-2-[2-(2,4,6-trimethyl-phenylsulfonyl)-1,2,3,4-tetrahydro-isoquinolin-3-ylmethoxy]-ethanone]
- inhibition at 10 µM (human B1R receptor; CHO-K1, test substance 10 μM): 55%
- inhibition at 10 µM (B1R receptor of the rat; CHO-K1, test substance 10 μM): 80.5%

Compound: CN(C)CCN1CCN(C(=O)COCC2CCCN2S(=O)(=O)c2c(Cl)cccc2Cl)CC1 (stereo not drawn) [Example 452, 2-((1-(2,6-dichlorophenylsulfonyl)pyrrolidin-2-yl)methoxy)-1-(4-(2-(dimethylamino)ethyl)piperazin-1-yl)ethanone]
- inhibition at 10 µM (human B1R receptor; CHO-K1, test substance 10 μM): 105%
- inhibition at 10 µM (B1R receptor of the rat; CHO-K1, test substance 10 μM): 95.2%

Compound: O=C(COCC1CCCCN1S(=O)(=O)c1ccc(Cl)c(Cl)c1)N1CCN(c2ccccc2F)CC1 (stereo not drawn) [Example 86, 2-[1-(3,4-dichloro-phenylsulfonyl)-piperidin-2-ylmethoxy]-1-[4-(2-fluoro-phenyl)-piperazin-1-yl]-ethanone]
- inhibition at 10 µM (human B1R receptor; CHO-K1, test substance 10 μM): 43.2%
- inhibition at 10 µM (B1R receptor of the rat; CHO-K1, test substance 10 μM): 0%

Compound: COc1cc(C)c(S(=O)(=O)N2CCCCC2COCC(=O)N2CCC(c3ccncc3)C2)c(C)c1 (stereo not drawn) [Example 238, 2-((1-(4-methoxy-2,6-dimethylphenylsulfonyl)piperidin-2-yl)methoxy)-1-(3-(pyridin-4-yl)pyrrolidin-1-yl)ethanone]
- inhibition at 10 µM (human B1R receptor; CHO-K1, test substance 10 μM): 99.9%
- inhibition at 10 µM (B1R receptor of the rat; CHO-K1, test substance 10 μM): 99.3%

Compound: COc1cc(C)c(S(=O)(=O)N2CCCCC2COCC(=O)N2CCN(c3ccc(F)cc3)CC2)c(C)c1 (stereo not drawn) [Example 289, 1-(4-(4-fluorophenyl)piperazin-1-yl)-2-((1-(4-methoxy-2,6-dimethylphenylsulfonyl)piperidin-2-yl)methoxy)ethanone]
- inhibition at 10 µM (human B1R receptor; CHO-K1, test substance 10 μM): 103%
- inhibition at 10 µM (B1R receptor of the rat; CHO-K1, test substance 10 μM): 95.5%

Compound: COc1cc(C)c(S(=O)(=O)N2CCCC2COCC(=O)NCCCCN2CCCC2)c(C)c1 (stereo not drawn) [Example 523, 2-((1-(4-methoxy-2,6-dimethylphenylsulfonyl)pyrrolidin-2-yl)methoxy)-N-(4-(pyrrolidin-1-yl)butyl)acetamide]
- inhibition at 10 µM (human B1R receptor; CHO-K1, test substance 10 μM): 66.4%
- inhibition at 10 µM (B1R receptor of the rat; CHO-K1, test substance 10 μM): 101%

Compound: Cc1ccccc1S(=O)(=O)N1CCCCC1COCC(=O)N1CCN(C2CCN(C)CC2)CC1 (stereo not drawn) [Example 159, 1-(4-(1-methylpiperidin-4-yl)piperazin-1-yl)-2-((1-(o-tolylsulfonyl)piperidin-2-yl)methoxy)ethanone dihydrochloride]
- inhibition at 10 µM (human B1R receptor; CHO-K1, test substance 10 μM): 99.2%
- inhibition at 10 µM (B1R receptor of the rat; CHO-K1, test substance 10 μM): 101%

Compound: COc1cc(C)c(S(=O)(=O)N2CCCCC2COCC(=O)N2CCC(N3CCC(F)CC3)CC2)c(C)c1 (stereo not drawn) [Example 130, 1-(4-fluoro-1,4′-bipiperidin-1′-yl)-2-((1-(4-methoxy-2,6-dimethylphenylsulfonyl)piperidin-2-yl)methoxy)ethanone]
- inhibition at 10 µM (human B1R receptor; CHO-K1, test substance 10 μM): 103%
- inhibition at 10 µM (B1R receptor of the rat; CHO-K1, test substance 10 μM): 96.3%

Compound: COc1ccc(C2CCCCN2C(=O)COCC2CCCCN2S(=O)(=O)c2c(C)cc(C)cc2C)cn1 (stereo not drawn) [Example 227, 2-((1-(mesitylsulfonyl)piperidin-2-yl)methoxy)-1-(2-(6-methoxypyridin-3-yl)piperidin-1-yl)ethanone]
- inhibition at 10 µM (human B1R receptor; CHO-K1, test substance 10 μM): 26.9%
- inhibition at 10 µM (B1R receptor of the rat; CHO-K1, test substance 10 μM): 94.5%

Compound: COc1cc(C)c(S(=O)(=O)N2CCCCC2COCC(=O)Nc2cc(C)[nH]n2)c(C)c1 (stereo not drawn) [Example 535, 2-((1-(4-methoxy-2,6-dimethylphenylsulfonyl)piperidin-2-yl)methoxy)-N-(5-methyl-1H-pyrazol-3-yl)acetamide]
- inhibition at 10 µM (human B1R receptor; CHO-K1, test substance 10 μM): 48.4%
- inhibition at 10 µM (B1R receptor of the rat; CHO-K1, test substance 10 μM): 107%

Compound: O=C(COCC1CCCCN1S(=O)(=O)c1c(Cl)cccc1Cl)N1CCN(c2ccc(Cl)c(Cl)c2)CC1 (stereo not drawn) [Example 404, 1-(4-(3,4-dichlorophenyl)piperazin-1-yl)-2-((1-(2,6-dichlorophenylsulfonyl)piperidin-2-yl)methoxy)ethanone]
- inhibition at 10 µM (human B1R receptor; CHO-K1, test substance 10 μM): 55.1%
- inhibition at 10 µM (B1R receptor of the rat; CHO-K1, test substance 10 μM): 98.5%

Compound: CN1CCC(N2CCN(C(=O)COCC3CCCCN3S(=O)(=O)c3ccccc3Cl)CC2)CC1 (stereo not drawn) [Example 139, 2-((1-(2-chlorophenylsulfonyl)piperidin-2-yl)methoxy)-1-(4-(1-methylpiperidin-4-yl)piperazin-1-yl)ethanone dihydrochloride]
- inhibition at 10 µM (human B1R receptor; CHO-K1, test substance 10 μM): 99.9%
- inhibition at 10 µM (B1R receptor of the rat; CHO-K1, test substance 10 μM): 98.8%
